The record followed here is PMC6266305 (Nutrients, 2018).

The nature of data set [1]: In vitro digestion model: bioaccessibility of alperujo phenolic compounds added to a test meal (percentage found in the aqueous phase of the digesta). Format: in vitro ADME. As to conditions: for recovery: pig. The method, then: The in vitro digestion was carried out as previously described. […] The mixture was dispersed with Ultra-Turrax® (Ika) and artificial saliva (2.5 mL, pH 7) was added to the mixture. The sample was incubated for 10 min at 37 °C in a shaking incubator. The pH of the gastric medium was adjusted to 4.00 ± 0.02 with 1 M HCl. Then, porcine pepsin (2 mL, 40 mg/mL in 0.1 M HCl) was added and the homogenate was incubated at 37 °C in a shaking incubator for 30 min simulating the gastric step. The pH of the mixture was raised to 6.00 ± 0.02 with 0.9 M NaHCO3 and 13 mL of a mixture of porcine bile extract (39.08 mg/mL) and pancreatin (2.08 mg/mL) in 0.1 M trisodium citrate (pH 6) were added. Samples were incubated in a shaking incubator at 37 °C for 30 min to complete the digestion process. The final mixture representing the digesta was centrifuged (2500 g for 1 h at 10 °C) to separate the aqueous fraction. […] All analyses were run in quadruplicate. Aliquots from salivary, gastric, and duodenal steps were frozen at −80 °C until use. […] After centrifugation (3560 g for 10 min at 4 °C), the lower phase was collected. The solid bottom was re-extracted with 0.3 mL of ethanol and vortexed for 10 min. The second ethanol phase recovered was pooled to the previously collected phase, and then dried using a Speed-Vac®. The dried extracts were dissolved in 200 µL of water. Apical media were directly injected. […] All samples were stored at −80 °C before analysis. All samples were analyzed by UHPLC-DAD-MS using an Acquity UPLC® system that was linked to both a diode-array detector and a Bruker Daltonics HCT Ultra Ion Traps mass spectrometer equipped with an Electron Spray Ionization (ESI) source operating in negative ion mode. The separation was performed on an Acquity C18 BEH column (50 × 2.1 mm i.d., 1.7 µm) kept at 35 °C. The solvents were (A) water/formic acid (99.5/0.5) and (B) acetonitrile. […] Along the three steps of the gradient, the flow rate was 0.30, 0.35, and 0.40 mL/min. […] Chromatograms were acquired at 280 nm. The spectroscopic detection was performed in the range 200–800 nm with a resolution of 1.2 nm.

Data set [2] in a line: Uptake and apical-to-basolateral transport by Caco-2 TC7 cell monolayers of diluted aqueous fractions from in vitro digestions. The conditions noted are these: human; for recovery at 6 h: Caco-2, 6 h; for Basolateral amount as percentage of initial apical amount (Caco-2 transport): whether from alperujo or alperujo-CD, read-out: Bioavailability (basolateral amount compared with initial apical amount). It counts as in vitro ADME, human. The method, then:
(§1) Caco-2 TC7 cells were grown in DMEM supplemented with 16% (v/v) fetal bovine serum, 1% (v/v) non-essential amino-acids, and 1% (v/v) antibiotics (complete medium), as previously described. Cells were then seeded at a density of 15 000 cells/well, grown on transwell membrane (six-well plate, […] polycarbonate membrane; Becton Dickinson) and incubated in humidified atmosphere of 5% CO2 and 95% air at 37 °C during 21 days to obtain confluent and differentiated cell monolayers.
(§2) The cytotoxicity on Caco-2 cells of the aqueous fractions from in vitro digestions was first assessed to determine the suitable dilution required before adding the aqueous fractions to the apical side of cell monolayers. […] To avoid any interference with DMEM or serum components, the aqueous fractions were diluted in HBSS. Caco-2 cells also received HBSS in both chambers 12 h before the experiments. At the beginning of each experiment, cells were rinsed twice with 1 mL of PBS. Then, 1 mL of diluted aqueous fraction was added to the apical side and 2 mL of HBSS were added at the basolateral side. After an incubation period (2, 4, or 6 h) at 37 °C, both apical and basolateral media were harvested. Cells were then rinsed twice with 1mL of PBS and scrapped in 0.5 mL of iced-cold PBS. All analyses were run in quadruplicate and samples were stored at −80 °C until further analysis.
(§3) Gallic acid was chosen as internal standard as it was not present in the extract. Phenolic compounds were extracted from salivary, gastric and duodenal samples as follows: 0.3 mL of ethanol and 0.2 mL of n-hexane were added to 0.2 mL of sample and the mixture was stirred for 10 min using a vortex blender at maximal speed. After centrifugation (3560 g for 10 min at 4 °C), the lower phase was collected. The solid bottom was re-extracted with 0.3 mL of ethanol and vortexed for 10 min. The second ethanol phase recovered was pooled to the previously collected phase, and then dried using a Speed-Vac®. The dried extracts were dissolved in 200 µL of water. Apical media were directly injected. To concentrate them, basolateral media (1900 µL) were dried using a Speed-Vac®, and the dried residues were dissolved into 80 µL of water. All samples were stored at −80 °C before analysis.
(§4) Following the procedure by Gallardo et al. (2016), 50 µL of internal standard were added to harvested cells (in 500 µL PBS). Samples were then sonicated for 10 min at room temperature and centrifuged (10,000 g for 10 min at 4 °C). Supernatants were collected and evaporated to dryness. The dried residues were dissolved in 50 µL of water and stored at −80 °C before analysis.
(§5) All samples were analyzed by UHPLC-DAD-MS using an Acquity UPLC® system that was linked to both a diode-array detector and a Bruker Daltonics HCT Ultra Ion Traps mass spectrometer equipped with an Electron Spray Ionization (ESI) source operating in negative ion mode. The separation was performed on an Acquity C18 BEH column (50 × 2.1 mm i.d., 1.7 µm) kept at 35 °C. The solvents were (A) water/formic acid (99.5/0.5) and (B) acetonitrile. The proportions of solvent B used were: 0–10 min: 1–20%, 10–12 min: 20–30%, 12–14 min: 30–100%. Along the three steps of the gradient, the flow rate was 0.30, 0.35, and 0.40 mL/min. The injection volume was 1 μL for digestion and apical medium samples, and 10 µL for cells and basolateral samples. Chromatograms were acquired at 280 nm. The spectroscopic detection was performed in the range 200–800 nm with a resolution of 1.2 nm. The concentrations of phenolic compounds Tyr, CA, and p-Cm were estimated from calibration curves (peak area vs. concentration) with R² values greater than 0.99 [26].
(§6) Results were expressed as means ± standard deviations. Differences between means were assessed using ANOVA followed by the post-hoc Tukey test for parametric data. P values under 0.05 were considered to be significant. […]
(In general: Caco-2 cells form a polarised layer with tight junctions and transporters.)

Another data set concerns Caco-2 TC7 cells. Described as above. It counts as in vitro ADME, human. The conditions noted are these: for Amount found in the cytosolic compartment of Caco-2 cells, percentage of the initial amount at the apical side: 6 h incubation; for Metabolism in the intestinal cells: Caco-2 cells, inferred from total recovery. The method, then:
as §1, §2, §3, §4, §5, §6

The mark [3] stands for this setting: pH 6, in vitro digestion with test meal, average of alperujo and alperujo-CD, mean ± SD, read-out: Bioaccessibility (recovery in the final aqueous phase at the duodenal step).
The mark [4] stands for this setting: pH 6, in vitro digestion, relative to the initial quantity, read-out: Recovery in the digesta.
Setting [5] is: from alperujo-CD, mean ± SD (n = 4), read-out: Bioavailability in Caco-2 cells (recovery on the basolateral side) as percentage of initial apical amount.
Where [6] appears, read: from alperujo, mean ± SD (n = 4), read-out: Bioavailability in Caco-2 cells (recovery on the basolateral side) as percentage of initial apical amount.
The mark [7] stands for this setting: read-out: Total recovery in the three compartments (apical, basolateral, cells).

Where two headings read alike, the source gives them in different places.

On to `OCCc1ccc(O)cc1` [Tyr, tyrosol], for which the recovery in data set [1] (setting [3]) was 83.7 ± 2.4%; in data set [1] (setting [4]), at least 100%. Besides, the recovery at 6 h in data set [2] (setting [5]) is 25.2 ± 1.3%; in data set [2] (setting [6]) it was about 22.9%; in data set [2] (setting [7]), about 100%. Further, the Basolateral amount as percentage of initial apical amount (Caco-2 transport) in data set [2] is over 20%. The “Amount found in the cytosolic compartment of Caco-2 cells, percentage of the initial amount at the apical side” value is reported as 1.6 ± 0.1% with Caco-2 TC7 cells (from alperujo) and 1.4 ± 0.1% in the data set on Caco-2 TC7 cells (from alperujo-CD). Further, the “Metabolism in the intestinal cells” value with Caco-2 TC7 cells was “no metabolism occurred”.
For the molecule `O=C(O)/C=C/c1ccc(O)cc1` [p-Cm, p-coumaric acid], the “Higher bioaccessibility of p-Cm than CA” value in data set [1] (in vitro digestion, final aqueous phase) was found to be 25%. Moreover, the recovery in data set [1] (setting [3]) was over 87.9%; in data set [1] (setting [4]), at least 100%. The recovery at 6 h in data set [2] (setting [5]) was 48.7 ± 2%; in data set [2] (setting [6]), 40.2 ± 4.1%; in data set [2] (setting [7]), about 100%. In data set [2], the Basolateral amount as percentage of initial apical amount (Caco-2 transport) is over 40%. In addition, the “Amount found in the cytosolic compartment of Caco-2 cells, percentage of the initial amount at the apical side” value with Caco-2 TC7 cells (from alperujo) stood at 1.6 ± 0.1%; in the data set on Caco-2 TC7 cells (from alperujo-CD), 1.8 ± 0.2%. Also, the “Metabolism in the intestinal cells” value with Caco-2 TC7 cells was “no metabolism occurred”. Also, the “Improvement of local absorption by β-CD” value in the data set on Caco-2 TC7 cells (alperujo-CD vs alperujo, p < 0.05) is 8.5 ± 4.2%.
